ChEMBL document CHEMBL1201862, “PubChem BioAssay data set” (2004)
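All cell lines were grown in 96-well plates and treated with compound for 48 hours. Abbreviation: GI50, concentration required for 50% inhibition of growth.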 The source made the active and inactive calls. Cut-off read from the data, not from the text of the source: active = GI50 up to about 1.1 µM and inactive = higher.

Columns and labels:
Test in all cases: growth of human tumour cells (NCI), 48 h
[1] = tested on: MDA-N
[2] = tested on: A549
[3] = tested on: SK-MEL-28
[4] = tested on: HCT-15
[5] = tested on: EKVX
[6] = tested on: MDA-MB-231
[7] = tested on: SK-MEL-5
[8] = tested on: A498
[9] = tested on: HT-29
[10] = tested on: 786-0
[11] = tested on: BT-549
[12] = tested on: UACC-62
[13] = tested on: Hs-578T
[14] = tested on: M14
[15] = tested on: COLO 205
[16] = tested on: HOP-92
[17] = tested on: SNB-19
[18] = tested on: CAKI-1
[19] = tested on: HOP-62
[20] = tested on: DU-145
[21] = tested on: SK-OV-3
[22] = tested on: ACHN
[23] = tested on: NCI-H23
[24] = tested on: TK-10
[25] = tested on: MOLT-4
[26] = tested on: LOX IMVI
[27] = tested on: MCF7
[28] = tested on: IGROV-1
[29] = tested on: HCC 2998
[30] = tested on: SN12C
[31] = tested on: RPMI-8226
[32] = tested on: OVCAR-8
[33] = tested on: OVCAR-3
[34] = tested on: OVCAR-5
[35] = tested on: NCI-H460
[36] = tested on: SK-MEL-2
[37] = tested on: K562
[38] = tested on: U-251
[39] = tested on: HCT-116
[40] = tested on: RXF 393
[41] = tested on: KM12
[42] = tested on: UO-31
[43] = tested on: T47D
[44] = tested on: CCRF-CEM
[45] = tested on: MDA-MB-435
[46] = tested on: SNB-75
[47] = tested on: PC-3
[48] = tested on: SF-295
[49] = tested on: SR
[50] = tested on: UACC-257
[51] = tested on: OVCAR-4
[52] = tested on: SW-620
[53] = tested on: SF-268
[54] = tested on: NCI-H522
[55] = tested on: HL-60
[56] = tested on: NCI/ADR-RES
[57] = tested on: SF-539
[58] = tested on: Malme-3M
[59] = tested on: NCI-H226

Question: What does the source list for `CC(C)Cc1cnc(CC(C)C)c(=O)[nH]1`?
Answer: GI50 [1]: > 100 µM (inactive); GI50 [2]: > 100 µM (inactive); GI50 [3]: > 100 µM (inactive); GI50 [4]: > 100 µM; GI50 [5]: > 100 µM (inactive); GI50 [6]: > 100 µM (inactive); GI50 [7]: > 100 µM (inactive); GI50 [8]: > 100 µM (inactive); GI50 [9]: > 100 µM (inactive); GI50 [10]: > 100 µM (inactive); GI50 [11]: > 100 µM (inactive); GI50 [12]: > 100 µM (inactive); GI50 [13]: > 100 µM (inactive); GI50 [14]: > 100 µM (inactive); GI50 [15]: > 100 µM (inactive); GI50 [16]: > 100 µM (inactive); GI50 [17]: > 100 µM (inactive); GI50 [18]: > 100 µM (inactive); GI50 [19]: > 100 µM (inactive); GI50 [20]: > 100 µM (inactive); GI50 [21]: > 100 µM (inactive); GI50 [22]: > 100 µM (inactive); GI50 [23]: > 100 µM (inactive); GI50 [24]: > 100 µM (inactive); GI50 [25]: > 100 µM (inactive); GI50 [26]: > 100 µM (inactive); GI50 [27]: > 100 µM (inactive); GI50 [28]: > 100 µM (inactive); GI50 [29]: > 100 µM (inactive); GI50 [30]: > 100 µM (inactive); GI50 [31]: 0.705 µM (active); GI50 [32]: > 100 µM (inactive); GI50 [33]: > 100 µM (inactive); GI50 [34]: > 100 µM (inactive); GI50 [35]: > 100 µM (inactive); GI50 [36]: > 100 µM (inactive); GI50 [37]: > 100 µM (inactive); GI50 [38]: > 100 µM (inactive); GI50 [39]: > 100 µM (inactive); GI50 [40]: > 100 µM (inactive); GI50 [41]: > 100 µM (inactive); GI50 [42]: > 100 µM (inactive); GI50 [43]: > 100 µM (inactive); GI50 [44]: > 100 µM (inactive); GI50 [45]: > 100 µM (inactive); GI50 [46]: > 100 µM (inactive); GI50 [47]: > 100 µM (inactive); GI50 [48]: > 100 µM (inactive); GI50 [49]: > 100 µM (inactive); GI50 [50]: > 100 µM (inactive); GI50 [51]: > 100 µM (inactive); GI50 [52]: > 100 µM (inactive); GI50 [53]: > 100 µM (inactive)

Question: `COc1ccccc1C1CC(=O)CC(c2ccccc2OC)C12C(=O)NC(=S)NC2=O` (stereo not drawn) was tested. Which GI50 [1] did it give?
Answer: 18.2 µM (inactive)

Question: And the GI50 [3]?
Answer: 32.4 µM (inactive)

Question: What about the GI50 [4] of the same compound?
Answer: 42.5 µM

Question: What about the GI50 [5] of the same compound?
Answer: > 100 µM (inactive)

Question: What about the GI50 [6] of the same compound?
Answer: 38.4 µM (inactive)

Question: What about the GI50 [54] of the same compound?
Answer: 51.3 µM (inactive)

Question: And the GI50 [7]?
Answer: 50.2 µM (inactive)

Question: What about the GI50 [9] of the same compound?
Answer: 73.8 µM (inactive)

Question: What about the GI50 [10] of the same compound?
Answer: > 100 µM (inactive)

Question: And the GI50 [11]?
Answer: > 100 µM (inactive)

Question: And the GI50 [12]?
Answer: > 100 µM (inactive)

Question: What about the GI50 [14] of the same compound?
Answer: 88.3 µM (inactive)

Question: And the GI50 [15]?
Answer: 32.6 µM (inactive)

Question: And the GI50 [16]?
Answer: 43.3 µM (inactive)

Question: What about the GI50 [17] of the same compound?
Answer: > 100 µM (inactive)

Question: And the GI50 [18]?
Answer: 68.9 µM (inactive)

Question: And the GI50 [19]?
Answer: > 100 µM (inactive)

Question: And the GI50 [20]?
Answer: 57.9 µM (inactive)

Question: And the GI50 [55]?
Answer: 9.93 µM (inactive)

Question: What about the GI50 [22] of the same compound?
Answer: 28.2 µM (inactive)

Question: What about the GI50 [23] of the same compound?
Answer: > 100 µM (inactive)

Question: What about the GI50 [24] of the same compound?
Answer: > 100 µM (inactive)

Question: What about the GI50 [56] of the same compound?
Answer: > 100 µM (inactive)

Question: And the GI50 [25]?
Answer: 35.7 µM (inactive)

Question: What about the GI50 [26] of the same compound?
Answer: 33.1 µM (inactive)

Question: And the GI50 [27]?
Answer: 46.8 µM (inactive)

Question: What about the GI50 [28] of the same compound?
Answer: 68.9 µM (inactive)

Question: And the GI50 [29]?
Answer: 62.7 µM (inactive)

Question: What about the GI50 [30] of the same compound?
Answer: 65.8 µM (inactive)

Question: What about the GI50 [31] of the same compound?
Answer: 19.9 µM (inactive)

Question: What about the GI50 [57] of the same compound?
Answer: 81.8 µM (inactive)

Question: And the GI50 [32]?
Answer: > 100 µM (inactive)

Question: What about the GI50 [33] of the same compound?
Answer: 80.2 µM (inactive)

Question: What about the GI50 [58] of the same compound?
Answer: 79.6 µM (inactive)

Question: What about the GI50 [34] of the same compound?
Answer: > 100 µM (inactive)

Question: And the GI50 [35]?
Answer: 54.5 µM (inactive)

Question: And the GI50 [36]?
Answer: 73.8 µM (inactive)

Question: What about the GI50 [37] of the same compound?
Answer: 47.6 µM (inactive)

Question: And the GI50 [38]?
Answer: > 100 µM (inactive)

Question: And the GI50 [39]?
Answer: 80.5 µM (inactive)

Question: What about the GI50 [40] of the same compound?
Answer: 59.4 µM (inactive)

Question: What about the GI50 [41] of the same compound?
Answer: 62.8 µM (inactive)

Question: And the GI50 [42]?
Answer: 87.9 µM (inactive)

Question: What about the GI50 [43] of the same compound?
Answer: 58.5 µM (inactive)

Question: What about the GI50 [44] of the same compound?
Answer: 46.6 µM (inactive)

Question: And the GI50 [45]?
Answer: 25.4 µM (inactive)

Question: And the GI50 [46]?
Answer: 56 µM (inactive)

Question: What about the GI50 [47] of the same compound?
Answer: 90.6 µM (inactive)

Question: What about the GI50 [59] of the same compound?
Answer: > 100 µM (inactive)

Question: And the GI50 [48]?
Answer: > 100 µM (inactive)

Question: What about the GI50 [49] of the same compound?
Answer: 53.7 µM (inactive)

Question: And the GI50 [50]?
Answer: 88.3 µM (inactive)

Question: And the GI50 [51]?
Answer: 99.8 µM (inactive)

Question: What about the GI50 [52] of the same compound?
Answer: 48.5 µM (inactive)

Question: What about the GI50 [53] of the same compound?
Answer: > 100 µM (inactive)
